# Source: US20240150321A1, “PYRAZOLYLSULFONAMIDE COMPOUNDS AND THEIR USE IN THERAPY” (HOTSPOT THERAPEUTICS, INC., priority 2022, published 2024)
# Experiments:
# Avi-tagged FL MALT-1 = Avi-tagged FL MALT-1 (Homo sapiens (Human), UniProt Q9UDY8); test: MALT-1 Fluorogenic Peptide Cleavage Assay (MALT1 inhibition assay); assay type: biochemical; details: Ac-LRSR-AMC peptide substrate, 30 min pre-incubation, 90 min reaction at room temperature
# Summary of the method: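 Cleavage of Ac-LRSR-AMC, read as fluorescence at 342/441 nm after 90 min at room temperature, with substrate working stocks of 50 μM (Km) or 280 μM (10×Km). Enzyme, Avi-tagged full-length MALT-1 (40 nM stock), was first pre-incubated 30 min with compound in citrate/HEPES pH 6.89 buffer with TCEP, EDTA, CHAPS and 2% DMSO; IC50 fitted from normalised % inhibition.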
# [1] = tested on: NF-kB reporter in Jurkat cells; test: NF-kB reporter assay in Jurkat cells stimulated with aCD3/aCD28/PMA; assay type: cell-based; details: Homo sapiens; Jurkat cells, 1 hr compound pre-incubation, aCD3/aCD28/PMA stimulation 4 hr, One-Glo readout; read-out: NF-kB Reporter Assay IC50
# Summary of the method: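 Luminescence (One-Glo) from the NF-kB reporter yielded IC50 values. Stimulation lasted 4 h at 37° C with aCD3, aCD28 and PMA (final 5, 5 and 0.03 […]), after 1 h compound pre-exposure of 25,000 Jurkat cells per well in serum-free RPMI.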
# Sequence of Avi-tagged FL MALT-1 (Q9UDY8 whole entry): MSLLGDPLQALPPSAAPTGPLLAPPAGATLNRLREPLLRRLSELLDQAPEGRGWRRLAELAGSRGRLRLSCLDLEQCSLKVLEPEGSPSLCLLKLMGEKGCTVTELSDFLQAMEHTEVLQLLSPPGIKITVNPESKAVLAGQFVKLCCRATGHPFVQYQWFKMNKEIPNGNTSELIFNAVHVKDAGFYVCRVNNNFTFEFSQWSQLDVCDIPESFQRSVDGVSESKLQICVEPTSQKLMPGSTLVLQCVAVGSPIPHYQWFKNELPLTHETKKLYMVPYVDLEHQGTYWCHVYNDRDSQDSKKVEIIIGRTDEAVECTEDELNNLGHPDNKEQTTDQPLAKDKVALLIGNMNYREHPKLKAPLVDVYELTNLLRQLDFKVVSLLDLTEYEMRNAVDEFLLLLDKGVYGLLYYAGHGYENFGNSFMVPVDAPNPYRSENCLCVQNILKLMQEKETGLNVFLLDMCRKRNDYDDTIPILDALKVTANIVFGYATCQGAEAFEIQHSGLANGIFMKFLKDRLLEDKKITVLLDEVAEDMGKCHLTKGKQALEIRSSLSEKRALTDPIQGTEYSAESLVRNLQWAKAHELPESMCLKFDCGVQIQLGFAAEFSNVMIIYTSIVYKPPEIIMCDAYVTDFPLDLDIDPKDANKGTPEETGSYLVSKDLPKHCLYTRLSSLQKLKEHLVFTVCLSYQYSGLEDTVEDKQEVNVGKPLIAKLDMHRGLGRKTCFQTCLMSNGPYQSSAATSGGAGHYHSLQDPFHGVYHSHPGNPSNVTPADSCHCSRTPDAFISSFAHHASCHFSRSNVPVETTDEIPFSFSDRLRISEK
Compound,IC50 (Avi-tagged FL MALT-1) [nM],IC50 [1] [nM]
"COc1ncc2cnn(C)c2c1NS(=O)(=O)c1cnn(-c2cc(C(C)(C)C)ccn2)c1 [Compound I-127, 1-(4-(tert-butyl)pyridin-2-yl)-N-(6-methoxy-1-methyl-1H-pyrazolo[4,3-c]pyridin-7-yl)-1H-pyrazole-4-sulfonamide]",≤ 400,< 400
"COc1ccc2cnn(C)c2c1NS(=O)(=O)c1cnn(-c2cc(N3CC(F)(F)C3)ccn2)c1 [Compound I-443, 1-[4-(3,3-difluoroazetidin-1-yl)pyridin-2-yl]-N-(6-methoxy-1-methylindazol-7-yl)pyrazole-4-sulfonamide]",1000 to 2500,< 400
"COc1ccc2cnn(C)c2c1NS(=O)(=O)c1cnn(-c2cc(C3(OC)CC(C)C3)ccn2)c1 (stereo not drawn) [Compound I-142, N-(6-methoxy-1-methyl-1H-indazol-7-yl)-1-(4-(1-methoxy-3-methylcyclobutyl)pyridin-2-yl)-1H-pyrazole-4-sulfonamide]",400 to 1000,< 400
"COc1ccc2cnn(C)c2c1NS(=O)(=O)c1cnn(-c2cc(C(C)(C)C)ccn2)c1 [Compound I-115, 1-(4-(tert-butyl)pyridin-2-yl)-N-(6-methoxy-1-methyl-1H-indazol-7-yl)-1H-pyrazole-4-sulfonamide]",≤ 400,< 400
"Cn1ncc2cccc(NS(=O)(=O)c3cnn(-c4cc([C@]5(O)C[C@@H](C)C5)ccn4)c3)c21 [Compound I-271, 1-(4-((1s,3s)-1-hydroxy-3-methylcyclobutyl)pyridin-2-yl)-N-(1-methyl-1H-indazol-7-yl)-1H-pyrazole-4-sulfonamide]",> 2500,< 400
"COc1ccc2cnn(C)c2c1NS(=O)(=O)c1cnn(-c2cc(C(C)O)ccn2)c1 (stereo not drawn) [Compound I-134, 1-(4-(1-hydroxyethyl)pyridin-2-yl)-N-(6-methoxy-1-methyl-1H-indazol-7-yl)-1H-pyrazole-4-sulfonamide]",400 to 1000,< 400
Cn1ncc2cccc(NS(=O)(=O)c3cnn(-c4cc(N5CC(C)(C)OC5=O)ccn4)c3)c21 [Compound I-283],> 2500,< 400
"Cc1ccc2cnn(C)c2c1NS(=O)(=O)c1cnn(-c2cc(C(F)(F)F)ccn2)c1 [Compound I-60, N-(1,6-Dimethyl-1H-Indazol-7-yl)-1-(4-(Trifluoromethyl) Pyridin-2-yl)-1H-Pyrazole-4-Sulfonamide]",≤ 400,< 400
C[C@H]1CN(c2ccnc(-n3cc(S(=O)(=O)Nc4cccc5cnn(C)c45)cn3)c2)C(=O)O1 [Compound I-319],> 2500,< 400
"COCCn1ncc2cccc(NS(=O)(=O)c3cnn(-c4cc(C5CC5)ccn4)c3)c21 [Compound I-102, 1-(4-cyclopropylpyridin-2-yl)-N-(1-(2-methoxyethyl)-1H-indazol-7-yl)-1H-pyrazole-4-sulfonamide]",> 2500,> 2500
"COc1ncc2cnn(C)c2c1NS(=O)(=O)c1cnn(-c2cc(C(C)(C)OC)ccn2)c1 [Compound I-261, N-(6-Methoxy-1-Methyl-1H-Pyrazolo[4,3-C]Pyridin-7-yl)-1-(4-(2-Methoxypropan-2-yl)Pyridin-2-yl)-1H-Pyrazole-4-Sulfonamide]",≤ 400,< 400
COc1ccc2cnn(C)c2c1NS(=O)(=O)c1cnn(-c2cc(Cl)ccn2)c1 [Compound I-54],≤ 400,< 400
O=S(=O)(Nc1cccc2cnn(C(F)F)c12)c1cnn(-c2cc(C(F)(F)F)ccn2)c1 [Compound I-239],> 2500,> 2500
"COCC(C)(C)c1ccnc(-n2cc(S(=O)(=O)Nc3c(OC)ccc4cnn(C)c34)cn2)c1 [Compound I-482, N-(6-methoxy-1-methyl-1H-indazol-7-yl)-1-(4-(1-methoxy-2-methylpropan-2-yl)pyridin-2-yl)-1H-pyrazole-4-sulfonamide]",400 to 1000,< 400
"CC1CN(c2ccnc(-n3cc(S(=O)(=O)Nc4cccc5cnn(C)c45)cn3)c2)C1 [Compound I-356, N-(1-methyl-1H-indazol-7-yl)-1-(4-(3-methylazetidin-1-yl)pyridin-2-yl)-1H-pyrazole-4-sulfonamide]",> 2500,< 400
COc1ccc2cnn(C)c2c1NS(=O)(=O)c1cnn(-c2cc(N3CCCCC3)ccn2)c1 [Compound I-372],1000 to 2500,< 400
"COc1ccc2cnn(C)c2c1NS(=O)(=O)c1cnn(-c2cc(C3COC3)ccn2)c1 [Compound I-262, N-(6-methoxy-1-methyl-1H-indazol-7-yl)-1-(4-(oxetan-3-yl)pyridin-2-yl)-1H-pyrazole-4-sulfonamide]",400 to 1000,< 400
"Cn1ncc2cccc(NS(=O)(=O)c3cnn(-c4cnn5c4COCC5)c3)c21 [Compound I-464, N-(1-methylindazol-7-yl)-1-{4H,6H,7H-pyrazolo[3,2-c][1,4]oxazin-3-yl}pyrazole-4-sulfonamide]",> 2500,400 to 1000

Compound,IC50 (Avi-tagged FL MALT-1) [nM],IC50 [1] [nM]
CN1CC(C)(C)N(c2ccnc(-n3cc(S(=O)(=O)Nc4cccc5cnn(C)c45)cn3)c2)C1=O [Compound I-333],> 2500,< 400
"COc1ccc2cnn(C)c2c1NS(=O)(=O)c1cnn(-c2cc(C(F)(F)F)n(C)n2)c1 [Compound I-266, N-(6-methoxy-1-methyl-1H-indazol-7-yl)-1′-methyl-5′-(trifluoromethyl)-1′H-[1,3′-bipyrazole]-4-sulfonamide]",≤ 400,< 400
CO[C@@]1(c2ccnc(-n3cc(S(=O)(=O)Nc4cccc5cnn(C)c45)cn3)c2)CCOC1 [Compound I-311],> 2500,< 400
Cn1ncc2cccc(NS(=O)(=O)c3cnn([C@@H]4CCCN(CC(F)(F)F)C4)c3)c21 [Compound I-328],> 2500,1000 to 2500
"Cn1ncc2cccc(NS(=O)(=O)c3cnn(-c4cc(C5(F)CC(F)(F)C5)ccn4)c3)c21 [Compound I-383, N-(1-methylindazol-7-yl)-1-[4-(1,3,3-trifluorocyclobutyl)pyridin-2-yl]pyrazole-4-sulfonamide]",> 2500,< 400
"Cc1n[nH]c2cccc(NS(=O)(=O)c3cnn(-c4cc(C5(O)CCCC5)ccn4)c3)c12 [Compound I-246, 1-[4-(1-hydroxycyclopentyl)pyridin-2-yl]-N-(3-methyl-1H-indazol-4-yl)pyrazole-4-sulfonamide]",> 2500,< 400
Cn1ncc2cccc(NS(=O)(=O)c3cnn([C@H]4CCCN(CC(F)(F)F)C4)c3)c21 [Compound I-329],> 2500,1000 to 2500
"COc1ncc2cnn(C)c2c1NS(=O)(=O)c1cnn(-c2cc(N3CCC(F)(F)C3)ccn2)c1 [Compound I-428, 1-(4-(3,3-difluoropyrrolidin-1-yl)pyridin-2-yl)-N-(6-methoxy-1-methyl-1H-pyrazolo[4,3-c]pyridin-7-yl)-1H-pyrazole-4-sulfonamide]",400 to 1000,< 400
Cn1ncc2cccc(NS(=O)(=O)c3cnn(-c4cc(N5CC(C#N)C5)ccn4)c3)c21 [Compound I-460],> 2500,< 400
"COC1CN(c2ccnc(-n3cc(S(=O)(=O)Nc4cccc5cnn(C)c45)cn3)c2)C1 [Compound I-441, 1-(4-(3-methoxyazetidin-1-yl)pyridin-2-yl)-N-(1-methyl-1H-indazol-7-yl)-1H-pyrazole-4-sulfonamide]",> 2500,< 400
"COc1ncc2cnn(C)c2c1NS(=O)(=O)c1cnn(-c2cc(C3(OC)COC3)ccn2)c1 [Compound I-125, N-{6-methoxy-1-methylpyrazolo [4,3-c]pyridin-7-yl}-1-[4-(3-methoxyoxetan-3-yl)pyridin-2-yl]pyrazole-4-sulfonamide]",≤ 400,< 400
"CCc1ccc2cnn(C)c2c1NS(=O)(=O)c1cnn(-c2ccnc(N(C)C)c2)c1 [Compound I-41, 1-(2-(Dimethylamino)Pyridin-4-yl)-N-(6-ethyl-1-Methyl-1H-Indazol-7-yl)-1H-Pyrazole-4-Sulfonamide]",≤ 400,< 400
COc1ncc2cnn(C)c2c1NS(=O)(=O)c1cnn(-c2cc(N3CCOCC3)ccn2)c1 [Compound I-416],> 2500,1000 to 2500
C[C@@H]1COC(=O)N1c1ccnc(-n2cc(S(=O)(=O)Nc3cccc4cnn(C)c34)cn2)c1 [Compound I-302],> 2500,< 400
"COc1ccc2cnn(C)c2c1NS(=O)(=O)c1cnn(-c2cc(C3(OC)CC4(CC4)C3)ccn2)c1 [Compound I-485, N-(6-methoxy-1-methylindazol-7-yl)-1-(4-{5-methoxyspiro [2.3]hexan-5-yl}pyridin-2-yl) pyrazole-4-sulfonamide]",400 to 1000,< 400
Cn1ncc2cccc(NS(=O)(=O)c3cnn(-c4cc(N5CC(C)(C(N)=O)C5)ccn4)c3)c21 [Compound I-458],> 2500,> 2500
"Cn1ncc2cccc(NS(=O)(=O)c3cnn(-c4cc(C5(O)CCCC5)ccn4)c3)c21 [Compound I-247, 1-[4-(1-hydroxycyclopentyl)pyridin-2-yl]-N-(1-methylindazol-7-yl) pyrazole-4-sulfonamide]",> 2500,< 400
"Cc1ccc2[nH]nc(C)c2c1NS(=O)(=O)c1cnn(-c2ccnc(C(F)(F)F)c2)c1 [Compound I-74, N-(3,5-Dimethyl-1H-Indazol-4-yl)-1-(2-(Trifluoromethyl)Pyridin-4-yl)-1H-Pyrazole-4-Sulfonamide]",≤ 400,1000 to 2500
